Test results as given in US10888541B2, “Method and compositions for treatment and prevention of broad spectrum virus ailments comprising a calcium channel blocker or a calmodulin blocker” (DR. KENNETH ADAMS MEDICINE PROFESSIONAL CORPORATION, priority 2009, dated 2021).

Tests used:
[1] = system: cold sores; assay: Case reports: recurrent cold sores, topical application; format: in vivo, human; settings: Patient A, 100 mg/ml topically
[2] = system: Genital Herpes; assay: Case report: recurrent Genital Herpes; format: in vivo, human
Text: Patient with a long history of recurrent Genital Herpes was using Diltiazem.

[3] = Case report: Rheumatoid Arthritis of the hands, topical ointment; settings: for pain in hand: person, within hours of applying; for mobility of joints: sustained applications over several days
[4] = system: HIV; assay: Case report: HIV patient, T4 helper counts; format: in vivo, human; settings: 240 mg (120 mg of verapamilSR) twice daily for 2 weeks
[5] = system: Herpes Zoster infection; assay: Case report: Herpes Zoster infection; format: in vivo, human; settings: elderly patient; 120 mg SR twice daily
Text: Elderly patient with Herpes Zoster infection on the upper left abdomen.

[6] = Case report: fever, chills, muscle aches, nausea and diarrhea; format: in vivo, human; settings: person; 120 mg tablets every 8 hours; within one hour of first tablet
Text: A person with a three day history of fever, chills, muscle aches and nausea. On the second and third days the patient developed increasing diarrhea. On the morning of the third day the patient was experiencing loose, watery stools with a cramps and lower abdominal pain.

[7] = system: viral upper respiratory infection; assay: Case report: viral upper respiratory infection, intranasal/throat spray
Text: person with symptoms of viral upper respiratory infection started experiencing nasal congestion and nasal discharge.

[8] = Case report: latex glove allergy (delayed hypersensitivity reaction); format: in vivo, human
Text: A person surgeon with a latex glove allergy. Symptoms of a red eczematous rash develops when they use latex gloves.

SMILES | cold sore infection when applied in the initial tingling phase [1] | severity and size of cold sore when application delayed until eruption visible [1] | time to complete healing clearance ([1]; application delayed until eruption visible, usual 7 days) [days] | frequency of genital herpes recurrences ([2]; after starting treatment, before: several episodes per year) | size and healing of genital herpes episodes ([2]; when on treatment) | pain in hand [3] | mobility of joints [3] | T4 helper counts [4] | pain, rash and healing of lesions [5] | abdominal cramping, stools and diarrhea [6] | time until nasal discharge stopped ([7]; 0.2 ml of 2 mg/ml sprayed into each nostril and back of throat) | upper respiratory symptoms ([7]; next day, after repeated 0.1 ml applications intranasally and to throat) | nasal congestion and nasal discharge ([7]; person, 0.2 ml of 2 mg/ml sprayed into each nostril and back of throat, within minutes) | chronic rash from daily exposure to latex ([8]; 200 mg/ml ointment) | delayed hypersensitivity reaction to latex gloves ([8]; 200 mg/ml ointment applied prior to wearing latex gloves)
COc1ccc([C@@H]2Sc3ccccc3N(CCN(C)C)C(=O)[C@@H]2OC(C)=O)cc1 [Diltiazem, diltiazem] | the infection could be prevented | minimize the severity, reduce the size | 2 to 4 | 1-2 episodes per year | much smaller and seemed to heal much quicker | significant reduction of pain in their hand | improved mobility of joints |  |  |  |  |  |  |  | 
COc1ccc(CCN(C)CCCC(C#N)(c2ccc(OC)c(OC)c2)C(C)C)cc1OC (centres unmarked) [Verapamil, verapamil] |  |  |  |  |  | significant reduction of pain in their hand | improved mobility of joints | significant rise in T4 helper counts | reduced pain, reduced rash and rapid healing of lesions | abdominal cramping began subsiding and their stools began to become more formed and diarrhea improved | approximately 20 minutes | cleared | reduction in nasal congestion and decreased nasal discharge | improved within hours | prevented
